Reference: PubChem BioAssay AID1963960 (Molecular Pharmacology Branch, DTP, NCI, 2024)
pIC50: −log10 of the molar value.

System: MDA-MB-468 spheroids with HUVEC/MSC, viability
Experiment: Anticancer human tumor MDA-MB-468 cell line growth inhibition [PI3K];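 note: spheroids exposed to agents for seven days before readout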;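 for viability, T/C: 100% = DMSO vehicle control viability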
Conditions: for pIC50: curve of first compound; for viability, T/C: stronger effect = lower value
Outline: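 Spheroid viability read-out. Co-cultures contained the tumor line plus HUVEC and human MSCs. Each agent was paired with a PI3K inhibitor (inavolisib, alpelisib, duvelisib, copanlisib) across half-log dilutions starting at clinical Cmax, or at 10 microM when Cmax was unknown.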

[1] = second compound 0.0316 µM, first compound 0.0316 µM
[2] = second compound 0.0316 µM, first compound 0.1 µM
[3] = second compound 0.0316 µM, first compound 0.316 µM
[4] = second compound 0.0316 µM, first compound 1 µM
[5] = second compound 0.0316 µM, first compound 3.16 µM
[6] = second compound 0.0316 µM, first compound 10 µM
[7] = second compound 0.1 µM, first compound 0.0316 µM
[8] = second compound 0.1 µM, first compound 0.1 µM
[9] = second compound 0.1 µM, first compound 0.316 µM
[10] = second compound 0.1 µM, first compound 1 µM
[11] = second compound 0.1 µM, first compound 3.16 µM
[12] = second compound 0.1 µM, first compound 10 µM
[13] = second compound 0.316 µM, first compound 0.0316 µM
[14] = second compound 0.316 µM, first compound 0.1 µM
[15] = second compound 0.316 µM, first compound 0.316 µM
[16] = second compound 0.316 µM, first compound 1 µM
[17] = second compound 0.316 µM, first compound 3.16 µM
[18] = second compound 0.316 µM, first compound 10 µM
[19] = second compound 1 µM, first compound 0.0316 µM
[20] = second compound 1 µM, first compound 0.1 µM
[21] = second compound 1 µM, first compound 0.316 µM
[22] = second compound 1 µM, first compound 1 µM
[23] = second compound 1 µM, first compound 3.16 µM
[24] = second compound 1 µM, first compound 10 µM
[25] = second compound 3.16 µM, first compound 0.0316 µM
[26] = second compound 3.16 µM, first compound 0.1 µM
[27] = second compound 3.16 µM, first compound 0.316 µM
[28] = second compound 3.16 µM, first compound 1 µM
[29] = second compound 3.16 µM, first compound 3.16 µM
[30] = second compound 3.16 µM, first compound 10 µM
[31] = second compound 10 µM, first compound 0.0316 µM
[32] = second compound 10 µM, first compound 0.1 µM
[33] = second compound 10 µM, first compound 0.316 µM
[34] = second compound 10 µM, first compound 1 µM
[35] = second compound 10 µM, first compound 3.16 µM
[36] = second compound 10 µM, first compound 10 µM

## C=CC(=O)N1CCN(c2nc(=O)n(-c3c(C)ccnc3C(C)C)c3nc(-c4c(O)cccc4F)c(F)cc23)C(C)C1 (centres undefined) + Cc1nc(NC(=O)N2CCCC2C(N)=O)sc1-c1ccnc(C(C)(C)C(F)(F)F)c1
Second compound 0.0316 µM
  pIC50: < 5.00
Second compound 0.1 µM
  pIC50: < 5.00
Second compound 0.316 µM
  pIC50: < 5.00
Second compound 1 µM
  pIC50: 5.21
Second compound 3.16 µM
  pIC50: 5.90
Second compound 10 µM
  pIC50: > 7.50
[1]
  viability, T/C: 94.9%
[2]
  viability, T/C: 92.7%
[3]
  viability, T/C: 82.9%
[4]
  viability, T/C: 131%
[5]
  viability, T/C: 113%
[6]
  viability, T/C: 67.8%
[7]
  viability, T/C: 93.2%
[8]
  viability, T/C: 100%
[9]
  viability, T/C: 97.1%
[10]
  viability, T/C: 122%
[11]
  viability, T/C: 95.9%
[12]
  viability, T/C: 63.6%
[13]
  viability, T/C: 101%
[14]
  viability, T/C: 100%
[15]
  viability, T/C: 88.1%
[16]
  viability, T/C: 91.6%
[17]
  viability, T/C: 86.2%
[18]
  viability, T/C: 57.5%
[19]
  viability, T/C: 77.4%
[20]
  viability, T/C: 80.9%
[21]
  viability, T/C: 78.1%
[22]
  viability, T/C: 88.3%
[23]
  viability, T/C: 56.9%
[24]
  viability, T/C: 44.9%
[25]
  viability, T/C: 82.7%
[26]
  viability, T/C: 63.7%
[27]
  viability, T/C: 55.8%
[28]
  viability, T/C: 60.8%
[29]
  viability, T/C: 40.9%
[30]
  viability, T/C: 37.2%
[31]
  viability, T/C: 43.8%
[32]
  viability, T/C: 31.2%
[33]
  viability, T/C: 34.3%
[34]
  viability, T/C: 25.6%
[35]
  viability, T/C: 21.9%
[36]
  viability, T/C: 15.8%

## CC(Cn1ccc(-c2ccc(C#N)c(Cl)c2)n1)NC(=O)c1cc(C(C)O)[nH]n1 (centres undefined) + Cc1nc(NC(=O)N2CCCC2C(N)=O)sc1-c1ccnc(C(C)(C)C(F)(F)F)c1
Second compound 0.0316 µM
  pIC50: < 5.00
Second compound 0.1 µM
  pIC50: < 5.00
Second compound 0.316 µM
  pIC50: < 5.00
Second compound 1 µM
  pIC50: < 5.00
Second compound 3.16 µM
  pIC50: < 5.00
Second compound 10 µM
  pIC50: > 7.50
[1]
  viability, T/C: 82.4%
[2]
  viability, T/C: 93%
[3]
  viability, T/C: 88.3%
[4]
  viability, T/C: 111%
[5]
  viability, T/C: 72%
[6]
  viability, T/C: 50.6%
[7]
  viability, T/C: 89.4%
[8]
  viability, T/C: 93.9%
[9]
  viability, T/C: 79.9%
[10]
  viability, T/C: 99%
[11]
  viability, T/C: 64.6%
[12]
  viability, T/C: 55.7%
[13]
  viability, T/C: 88%
[14]
  viability, T/C: 86.5%
[15]
  viability, T/C: 80.6%
[16]
  viability, T/C: 92.2%
[17]
  viability, T/C: 61.5%
[18]
  viability, T/C: 54%
[19]
  viability, T/C: 86.3%
[20]
  viability, T/C: 71.1%
[21]
  viability, T/C: 64.1%
[22]
  viability, T/C: 70.4%
[23]
  viability, T/C: 61.2%
[24]
  viability, T/C: 50.5%
[25]
  viability, T/C: 74.4%
[26]
  viability, T/C: 54.2%
[27]
  viability, T/C: 64.4%
[28]
  viability, T/C: 61.3%
[29]
  viability, T/C: 53.4%
[30]
  viability, T/C: 49.2%
[31]
  viability, T/C: 33.4%
[32]
  viability, T/C: 28.8%
[33]
  viability, T/C: 28.4%
[34]
  viability, T/C: 29.9%
[35]
  viability, T/C: 28.3%
[36]
  viability, T/C: 21.5%
